Measurements from patent EP1137632B1, “THIOUREA INHIBITORS OF HERPES VIRUSES” (Wyeth, priority 1998, dated 2000).
Values after ≈ are worked out from the molar mass of the structure shown. Read-outs that look alike come from different tables or passages of the source.

Columns and labels:
[1] = tested on: HCMV recombinant mutant virus; test: microbe, parasite or virus in culture; format: cell-based, human cytomegalovirus; conditions: for IC50: Human betaherpesvirus 5, read-out: IC50 (ug/ml) HCMV
How it was run: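 Human foreskin fibroblasts were infected with a recombinant HCMV carrying a beta-glucuronidase gene under a viral promoter, in the presence of compound. At 96 h post-infection, lysate beta-glucuronidase activity was read colorimetrically or fluorometrically as a replication marker. IC50 came from the compound dose range.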

[2] = tested on: HSV-1; test: HSV antiviral (ELISA) assay in Vero cells; format: cell-based, herpes simplex virus type 1; conditions: for IC50: read-out: IC50 (ug/ml) HSV
How it was run: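 Vero cells in DMEM/2% FBS treated with compound 30 min before HSV-1 infection (MOI 0.006), ~24 h at 37 °C. Viral glycoprotein D measured by cell ELISA with β-galactosidase-linked secondary and fluorogenic methylumbelliferyl galactoside (ex 365/em 450 nm); IC50 versus no-compound fluorescence.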

[3] = tested on: VZV strain Ellen; test: VZV antiviral (ELISA) assay in human foreskin fibroblast cells; format: cell-based, varicella-zoster virus; conditions: for IC50: read-out: IC50 (ug/ml) VZV
How it was run: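 HFF cells infected with VZV Ellen (MOI <0.1) overnight, then plated at 3.5x10^4 cells/well with compound in DMEM + 2% FBS for three days at 37°C, 5% CO2. Viral glycoprotein II quantified by ELISA with β-galactosidase-linked secondary and 4-methylumbelliferyl-galactoside fluorescence (365/450 nm); IC50 versus no-compound fluorescence.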

[4] = Human alphaherpesvirus 1, HSV-1 in Vero cells
[5] = Human alphaherpesvirus 3, VZV strain Ellen in HFF cells

Compound | IC50 [1] [µg/mL] | IC50 [2, 4] [µg/mL] | IC50 [3, 5] [µg/mL] | also measured
CC(NC(=S)Nc1ccc(NC(=O)c2ccccc2F)c(OCc2ccccc2)c1)c1ccc(F)cc1 (stereo not shown) [Example 1051, N-(2-Benzyloxy-4-{3-[1-(4-fluoro-phenyl)-ethyl]-thioureido}-phenyl)-2-fluoro-benzamide] | > 10 | > 10 | 0.7 (≈ 1.35 µM) | –
CCCCOc1cc(NC(=S)NC(C)c2ccc(F)cc2)ccc1NC(=O)c1ccccc1F (stereo not shown) [Example 1055, N-(2-Butoxy-4-{3-[1-(4-fluoro-phenyl)-ethyl]-thioureido}-phenyl)-2-fluoro-benzamide] | > 10 | > 10 | 0.32 (≈ 0.662 µM) | –
CCCCOc1cc(NC(=S)NC(C)c2ccc(C#N)cc2)ccc1NC(=O)c1ccccc1F (stereo not shown) [Example 1056, N-(2-Butoxy-4-{3-[1-(4-cyano-phenyl)-ethyl]-thioureido}-phenyl)-2-fluoro-benzamide] | 2.5 (≈ 5.1 µM) | > 10 | 0.4 (≈ 0.815 µM) | –
CCOc1cc(NC(=S)NC(C)c2ccc(F)cc2)ccc1NC(=O)c1ccccc1F (stereo not shown) [Example 1060, N-(2-Ethoxy-4-{3-[1-(4-fluoro-phenyl)-ethyl]-thioureido}-phenyl)-2-fluoro-benzamide] | > 10 | > 10 | 0.26 (≈ 0.571 µM) | –
CCOc1cc(NC(=S)NC(C)c2ccc(C#N)cc2)ccc1NC(=O)c1ccccc1F (stereo not shown) [Example 1061, N-(4-{3-[1-(4-Cyano-phenyl)-ethyl]-thioureido}-2-ethoxy-phenyl)-2-fluoro-benzamide] | 7.6 (≈ 16.4 µM) | > 10 | 0.64 (≈ 1.38 µM) | –
CC(NC(=S)Nc1ccc(NC(=O)c2ccccc2F)c(OCC#N)c1)c1ccc(F)cc1 (stereo not shown) [Example 1062, 2-Fluoro-N-[4-{3-[1-(4-fluoro-phenyl)-ethyl]-thioureido}-2-(2-nitrilo-ethoxy)-phenyl]-benzamide] | 6 (≈ 12.9 µM) | > 10 | 0.33 (≈ 0.707 µM) | –
CC(NC(=S)Nc1ccc(NC(=O)c2ccccc2F)c(OCC#N)c1)c1ccc(C#N)cc1 (stereo not shown) [Example 1063, N-[4-{3-[1-(4-Cyano-phenyl)-ethyl]-thioureido}-2-(2-nitrilo-ethoxy)-phenyl]-2-fluoro-benzamide] | 3.6 (≈ 7.6 µM) | > 10 | 0.64 (≈ 1.35 µM) | –
COc1cc(NC(=S)NC(C)c2ccc(F)cc2)ccc1NC(=O)c1ccccc1F (stereo not shown) [Example 1064, 2-Fluoro-N-(4-{3-[1-(4-fluoro-phenyl)-ethyl]-thioureido}-2-methoxy-phenyl)-benzamide] | 4.5 (≈ 10.2 µM) | 3.9 (≈ 8.83 µM) | 0.04 (≈ 0.0906 µM) | –
CC(NC(=S)Nc1ccc(NC(=O)c2ccccc2F)c(-c2ccccc2)c1)c1ccc(F)cc1 (stereo not shown) [Example 1065, 2-Fluoro-N-(5-{3-[1-(4-fluoro-phenyl)-ethyl)-thioureido}-biphenyl-2-yl)-benzamide] | 8.1 (≈ 16.6 µM) | – | – | IC50 ([2]; Human alphaherpesvirus 1, Vero): 4.9 µg/mL (≈ 10 µM); IC50 ([3]; Human alphaherpesvirus 3, HFF): 0.33 µg/mL (≈ 0.677 µM)
CC(NC(=S)Nc1ccc(NC(=O)c2nccc3ccccc23)c(C(F)(F)F)c1)c1ccc(F)cc1 (stereo not shown) [Example 1066, Isoquinoline-1-carboxylic acid (4-{3-[1-(4-fluoro-phenyl)-ethyl]-thioureido}-2-trifluoromethyl-phenyl)-amide] | 1.8 (≈ 3.51 µM) | 1.9 (≈ 3.71 µM) | 0.02 (≈ 0.039 µM) | –
CC(NC(=S)Nc1ccc(NC(=O)c2cc3ccccc3o2)c(C(F)(F)F)c1)c1ccc(F)cc1 (stereo not shown) [Example 1067, Benzofuran-2-carboxylic acid (4-{3-[1-(4-fluoro-phenyl)-ethyl]-thioureido}-2-trifluoromethyl-phenyl)-amide] | 3.3 (≈ 6.58 µM) | 3.8 (≈ 7.58 µM) | 0.26 (≈ 0.518 µM) | –
CC(NC(=S)Nc1ccc(NC(=O)c2cc3ccccc3cn2)c(C(F)(F)F)c1)c1ccc(F)cc1 (stereo not shown) [Example 1068, Isoquinoline-3-carboxylic acid (4-{3-[1-(4-fluoro-phenyl)-ethyl]-thioureido}-2-trifluoromethyl-phenyl)-amide] | > 10 | > 10 | 0.04 (≈ 0.078 µM) | –
CC(NC(=S)Nc1ccc(NC(=O)c2nccc3ccccc23)c(C#N)c1)c1ccc(F)cc1 (stereo not shown) [Example 1069, Isoquinoline-1-carboxylic acid (2-cyano-4-{3-[1-(4-fluoro-phenyl)-ethyl]-thioureido}-phenyl)-amide] | 4 (≈ 8.52 µM) | > 10 | 0.019 (≈ 0.0405 µM) | –
CC(NC(=S)Nc1ccc(NC(=O)c2cc3ccccc3o2)c(C#N)c1)c1ccc(F)cc1 (stereo not shown) [Example 1070, Benzofuran-2-carboxylic acid (2-cyano-4-{3-[1-(4-fluoro-phenyl)-ethyl]-thioureido}-phenyl)-amide] | 2 (≈ 4.36 µM) | 4.1 (≈ 8.94 µM) | 0.2 (≈ 0.436 µM) | –
CC(NC(=S)Nc1ccc(NC(=O)c2cc3ccccc3cn2)c(C#N)c1)c1ccc(F)cc1 (stereo not shown) [Example 1071, Isoquinoline-3-carboxylic acid (2-cyano-4-{3-[1-(4-fluoro-phenyl)-ethyl]-thioureido}-phenyl)-amide] | > 10 | 9 (≈ 19.2 µM) | 0.03 (≈ 0.0639 µM) | –
Cc1cc(NC(=S)NC(C)c2ccc(F)cc2)ccc1NC(=O)c1nccc2ccccc12 (stereo not shown) [Example 1072, Isoquinoline-1-carboxylic acid (4-{3-[1-(4-fluoro-phenyl)-ethyl]-thioureido}-2-methyl-phenyl)-amide] | > 10 | > 10 | 0.027 (≈ 0.0589 µM) | –
Cc1cc(NC(=S)NC(C)c2ccc(F)cc2)ccc1NC(=O)c1cc2ccccc2o1 (stereo not shown) [Example 1073, Benzofuran-2-carboxylic acid (4-{3-[1-(4-fluoro-phenyl)-ethyl]-thioureido}-2-methyl-phenyl)-amide] | 6.3 (≈ 14.1 µM) | 4.6 (≈ 10.3 µM) | 0.47 (≈ 1.05 µM) | –
Cc1cc(NC(=S)NC(C)c2ccc(F)cc2)ccc1NC(=O)c1cc2ccccc2cn1 (stereo not shown) [Example 1074, Isoquinoline-3-carboxylic acid (4-{3-[1-(4-fluoro-phenyl)-ethyl]-thioureido}-2-methyl-phenyl)-amide] | 4 (≈ 8.72 µM) | 5.8 (≈ 12.6 µM) | 0.07 (≈ 0.153 µM) | –
(5H,11H-Benzo[e]pyrrolo[1,2-a][1,4]diazepin-10-yl)-(2-chloro-4-imidazol-1-yl-phenyl)-methanone [Example 322] | – | – | – | IC50 (ug/ml) HCMV ([1]; HCMV, the table does not say which HCMV assay): 7 µg/mL; IC50 (ug/ml) HSV ([2]; HSV-1 in Vero cells): 4 µg/mL; % inhibition 10 ug/ml VZV ([3]; 10 ug/ml): 108%; IC50 (ug/ml) VZV ([3]; VZV strain Ellen in HFF cells): 8 µg/mL
